Source: patent US20240324590A1, “COMBINATIONS OF TRIAZOLINONE HERBICIDES WITH SAFENERS” (UPL CORPORATION LIMITED, priority 2021, published 2024)

How the values were obtained:
Assay type in all cases: in vivo
corn crop [1] = experiment: % phytotoxicity in corn crop after spraying tank mix; conditions: for Phytotoxicity (%) in corn crop: flucarbazone 30 g ai/ha, safener cyprosulfamid 66 / isoxadifen 38 / mefenpyr 30 g ai/ha
Protocol: Treatment: The present invention has employed a tank mix combination of Flucarbazone and Cyprosulfamid as the safener to evaluate its percentage phytotoxicity and its efficacy in the control of weeds.
The tank mix combination of Flucarbazone and Cyprosulfamid as the safener was formulated and the combination was sprayed onto corn crop and the results on the phytotoxicity in corn were determined. These observations relating to % phytotoxicity were made during a time interval of over a month. The duration at which the % phytotoxicity were determined at time intervals as follows: 3 DAA (3 days after application), 5 DAA (5 days after application), 7 DAA (7 days after application), 14 DAA (14 days after application), 21 DAA (21 days after application); 28 DAA (28 days after application); 35 DAA (35 days after application); 42DAA (42 days after application).
• (i) Treatment: The present invention has employed a tank mix of Flucarbazone and Isoxadifen as the safener to evaluate its percentage phytotoxicity in corn crop. • (ii) % Phytotoxicity: This % phytotoxicity was observed by the present inventors to be as high as 48% at 14 DAA in crops treated with Flucarbazone and Isoxadifen.
B) Flucarbazone with Mefenpyr as the Safener • (i) Treatment: The present invention has employed a tank mix combination of Flucarbazone and […] as the safener to evaluate its percentage phytotoxicity in corn crop.

redroot pigweed = experiment: % efficacy of weed control against redroot pigweed in corn crop; conditions: for % Efficacy for control of weeds: redroot pigweed in corn crop, flucarbazone 30 g ai/ha, cyprosulfamid 66 g ai/ha
Protocol: The tank mix combination of Flucarbazone and Cyprosulfamid as the safener was formulated and the combination was sprayed onto corn crop and the results on the efficacy in weed control were determined.

corn crop [2] = experiment: Height of corn plants after treatment, greenhouse; conditions: for Crop height (cm) at 14 DAA: safener 90 g ai/ha
Protocol: (§1) The combination of flucarbazone with safeners selected from cyprosulfamid and isoxadifen were evaluated in terms of the increase or decrease in height of the treated corn crop (cm) and % phytotoxicity. The experimental evaluations were conducted under greenhouse conditions with 4 repetitions, using a spray volume of […]. The different corn varieties tested were SYN8A98 TLTG and XB 8010.
The observations for determining corn height were made at 14 DAA (days after application) of the herbicide. The treatment employed and the corresponding observations are detailed in the table 8 (i) & (ii) below: […]

corn crop [3] = experiment: % phytotoxicity on corn varieties, greenhouse; conditions: flucarbazone 45 g ai/ha alone
Protocol: as §1
The observations for determining corn height were made at 7 DAA (days after application), 14 DAA and 21 DAA, of the herbicide. The treatment employed and the corresponding observations are detailed in the table 9 (i) & (ii) below: […]

COc1nn(C(=O)NS(=O)(=O)c2ccccc2OC(F)(F)F)c(=O)n1C [flucarbazone, Flucarbazone]
Phytotoxicity (%) in corn crop (corn crop [1]; 3DAA & 5DAA, sub-column 1 of 3 (unlabelled)): 0% | Phytotoxicity (%) in corn crop (corn crop [1]; 3DAA & 5DAA, sub-column 3 of 3 (unlabelled)): 0% | Phytotoxicity (%) in corn crop (corn crop [1]; 3DAA & 5DAA): 0% | Phytotoxicity (%) in corn crop (corn crop [1]; 7DAA, sub-column 1 of 3 (unlabelled)): 28.8% | Phytotoxicity (%) in corn crop (corn crop [1]; 7DAA, sub-column 3 of 3 (unlabelled)): 28.8% | Phytotoxicity (%) in corn crop (corn crop [1]; 7DAA): 28.8% | Phytotoxicity (%) in corn crop (corn crop [1]; 14 DAA, sub-column 1 of 3 (unlabelled)): 51.3% | Phytotoxicity (%) in corn crop (corn crop [1]; 14 DAA, sub-column 3 of 3 (unlabelled)): 50% | Phytotoxicity (%) in corn crop (corn crop [1]; 14 DAA): 53.8% | Phytotoxicity (%) in corn crop (corn crop [1]; 21DAA, sub-column 1 of 3 (unlabelled)): 50% | Phytotoxicity (%) in corn crop (corn crop [1]; 21DAA, sub-column 3 of 3 (unlabelled)): 46.3% | Phytotoxicity (%) in corn crop (corn crop [1]; 21DAA): 51.3% | Phytotoxicity (%) in corn crop (corn crop [1]; 28DAA, sub-column 1 of 3 (unlabelled)): 47.5% | Phytotoxicity (%) in corn crop (corn crop [1]; 28DAA, sub-column 3 of 3 (unlabelled)): 39.8% | Phytotoxicity (%) in corn crop (corn crop [1]; 28DAA): 56.3% | Phytotoxicity (%) in corn crop (corn crop [1]; 35DAA, sub-column 1 of 3 (unlabelled)): 44.9% | Phytotoxicity (%) in corn crop (corn crop [1]; 35DAA, sub-column 3 of 3 (unlabelled)): 39.9% | Phytotoxicity (%) in corn crop (corn crop [1]; 35DAA): 53.8% | Phytotoxicity (%) in corn crop (corn crop [1]; 42DAA, sub-column 1 of 3 (unlabelled)): 42.4% | Phytotoxicity (%) in corn crop (corn crop [1]; 42DAA, sub-column 3 of 3 (unlabelled)): 38.7% | Phytotoxicity (%) in corn crop (corn crop [1]; 42DAA): 48.7% | % phytotoxicity levels in corn crop (corn crop [1]; at 14 DAA, highest level stated in text): up to 50% | % phytotoxicity in corn crop (corn crop [1]; over a period of one month after application): significant damage | % Efficacy for control of weeds (redroot pigweed; 7 DAA): 22.5% | % Efficacy for control of weeds (redroot pigweed; 14 DAA): 42.5% | % Efficacy for control of weeds (redroot pigweed; 21 DAA): 45% | % Efficacy for control of weeds (redroot pigweed; 28 DAA): 48.8% | % Efficacy for control of weeds (redroot pigweed; 35 DAA): 48.8% | % Efficacy for control of weeds (redroot pigweed; 42 DAA): 48.8% | % efficacy control of redroot pigweed (redroot pigweed; over a duration of one month, corn crop): reduced % efficacy | Height of the corn plants (corn crop [2]; 14 DAA, compared with untreated corn): reduction in height | Crop height (cm) at 14 DAA (corn crop [2]; corn variety SYN8A98 TLTG, flucarbazone 30 g ai/ha): 14 cm | Crop height (cm) at 14 DAA (corn crop [2]; corn variety XB 8010, flucarbazone 30 g ai/ha): 11 cm | % phytotoxocity of corn crop variety P4285VYHR (corn crop [3]; 7DAA): 26 ab % | % phytotoxocity of corn crop variety SYN8A98 TLTG (corn crop [3]; 7DAA): 19 cd % | % phytotoxocity of corn crop variety XB 8010 (corn crop [3]; 7DAA): 28 a % | % phytotoxocity of corn crop variety P4285VYHR (corn crop [3]; 14 DAA): 34 b % | % phytotoxocity of corn crop variety SYN8A98 TLTG (corn crop [3]; 14 DAA): 47 ab % | % phytotoxocity of corn crop variety XB 8010 (corn crop [3]; 14 DAA): 52 ab % | % phytotoxocity of corn crop variety P4285VYHR (corn crop [3]; 21 DAA): 32 b % | % phytotoxocity of corn crop variety SYN8A98 TLTG (corn crop [3]; 21 DAA): 48 bc % | % phytotoxocity of corn crop variety XB 8010 (corn crop [3]; 21 DAA): 51 ab %
